Laboratory results taken from paper PMC8377444 (Pharmacology Research & Perspectives, 2021).

Key:
[1] = Safety and tolerability assessments, whole study; format: in vivo, human
[2] = Treatment-emergent adverse events, single ascending dose; format: in vivo, human
[3] = Safety under fed conditions; format: in vivo, human; settings: single dose 25 mg
[4] = Plasma pharmacokinetics, single 25 mg dose fed / food effect; format: in vivo, human; settings: high-fat, high-calorie meal
TLR7/8 [5] = test: Ex vivo R848-stimulated whole blood cytokine release immunoassay, IL-6 secretion; format: in vivo, human
mouse models of SLE = settings: cited from earlier work
TLR7/8 [6] = settings: in vitro and ex vivo; cited from earlier work

N#Cc1ccc(N2C[C@H](N)C[C@H](C(F)(F)F)C2)c2cccnc12 [enpatoran]
Dose dependence of TEAEs ([1]; Parts A and B): No dose‐dependent TEAEs were observed | Severity of TEAEs ([1]; Parts A and B, all TEAEs): mild to moderate | Tolerability ([1]; single and multiple oral doses up to 200 mg, fasting or fed): well tolerated | Deaths ([1]; whole study): no deaths | Discontinuations due to TEAEs ([1]; whole study): no discontinuations due to TEAEs | Serious AEs ([1]; whole study): No serious AEs occurred | Changes in laboratory values, vital signs or ECGs ([1]; whole study period): No clinically relevant changes | Study intervention-related flatulence ([2]; SAD cohorts): three | TEAE: Flatulence ([2]; single dose 3 mg, n = 6): 4 (66.7) Number (%) of participants | TEAEs reported during Part C [3]: no TEAEs were reported | Decrease in CL/F, fed versus fasting [4]: approximately 25% | Inhibition of IL-6 secretion maintained throughout the dosing interval (TLR7/8 [5]; 200 mg QD, 25 mg BID and 50 mg BID): At least 60% | Dose with maximum inhibition of ex vivo-stimulated IL-6 secretion (TLR7/8 [5]; doses up to 200 mg): 200 mg | Time of peak TLR7/8 target modulation (TLR7/8 [5]; post-dose): 2 h | Disease activity in mouse models of SLE (mouse models of SLE): suppress disease activity | Sustained inhibition of IL-6 (mouse models of SLE; lowest efficacious dose in mouse models of SLE): 60% | Activation of TLR7/8 (TLR7/8 [6]): inhibit the activation of TLR7/8
